Test results from patent US20260022142A1, “MACROCYCLIC IMMUNOMODULATORS” (Bristol-Myers Squibb Company, priority 2022, published 2026).
pIC50: −log10 of the molar value. Bridge positions count the residues as written; N and C are the ends. Square brackets hold non-standard residues; d marks the D form. Peptide text beside a SMILES is read from it. * marks the point of attachment. Ala(indol-2-yl) = N[C@@H](Cc1cc2ccccc2[nH]1)C(=O)O; Bip = N[C@@H](Cc1ccc(-c2ccccc2)cc1)C(=O)O; Phe(3-Me) = Cc1cccc(C[C@H](N)C(=O)O)c1; Cha = N[C@@H](CC1CCCCC1)C(=O)O; dCha = N[C@H](CC1CCCCC1)C(=O)O; dNle = CCCC[C@@H](N)C(=O)O; Carboxymethyl = O=C(O)C*; Orn = NCCC[C@H](N)C(=O)O; Aun = NCCCCCCCCCCC(=O)O; Dab = NCC[C@H](N)C(=O)O; Dap = NC[C@H](N)C(=O)O; AEEA = NCCOCCOCC(=O)O

Molecular target: T1, PD-1/PD-L1 interaction (PE-labeled human PD-L1-Ig binding to Jurkat cell line over-expressing human PD-1) (Homo sapiens, UniProt Q15116)
T1 construct: expressed in transfected cells; host or cells: Jurkat
T1 sequence (Q15116 25-288): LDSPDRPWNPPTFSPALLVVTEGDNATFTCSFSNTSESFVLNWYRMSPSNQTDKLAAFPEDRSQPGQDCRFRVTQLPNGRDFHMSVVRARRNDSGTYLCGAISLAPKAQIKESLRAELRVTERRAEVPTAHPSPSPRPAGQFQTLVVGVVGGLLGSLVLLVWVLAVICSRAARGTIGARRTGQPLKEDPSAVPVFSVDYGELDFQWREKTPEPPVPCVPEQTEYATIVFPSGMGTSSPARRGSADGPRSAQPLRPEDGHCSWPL
Assay: Jurkat-PD-1 Cell Binding High-Content Screening Assay (CBA)
Format: cell-based
Conditions: Jurkat cell line over-expressing human PD-1; PE-labeled PD-L1-Ig 20 nM final; read-out: Jurkat hPD1-PDL1 IC50
Summary of the method: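 Human PD-L1-Ig carrying a covalent PE label on its Ig tag serves as the probe, applied at 20 nM final to compound-treated (2 h, 37° C) Jurkat-hPD-1 cells in medium with 10% fetal calf serum. After one hour, fixation and nuclear staining precede high-content image analysis.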

| Structure (SMILES) | pIC50 |
| --- | --- |
| Cc1cccc(C[C@@H]2NC(=O)[C@H](CC(=O)O)NC(=O)[C@H](Cc3ccc(OCC(=O)O)cc3)NC(=O)[C@H](CN)NC(=O)CSC[C@@H](C(=O)N[C@@H](CCCCN)C(=O)NCCOCCOCC(=O)NCCCCCCCCCCC(=O)O)NC(=O)[C@H](CCCNC(=N)N)NC(=O)[C@H](C(C)C)NC(=O)[C@H](CC3CCCCC3)NC(=O)[C@H](CCN)NC(=O)[C@@H](CC(C)C)NC(=O)[C@H](CCCN)NC(=O)[C@H](CCC(=O)O)NC(=O)[C@H](Cc3ccc(-c4ccccc4)cc3)NC(=O)[C@H](C(C)C)NC2=O)c1 [Compound 2670] ({CH2CO}-[Dap]Y(Carboxymethyl)D[Phe(3-Me)]V[Bip]E[Orn][dL][Dab][Cha]VRCK[AEEA][Aun]-OH; thioether N-14) | 7.97 |
| CC(C)C[C@H]1NC(=O)[C@H](CCCN)NC(=O)[C@H](CCC(=O)O)NC(=O)[C@H](Cc2ccc(-c3ccccc3)cc2)NC(=O)[C@H](C(C)C)NC(=O)[C@H](Cc2c[nH]c3ccccc23)NC(=O)[C@H](CC(=O)O)NC(=O)[C@H](Cc2ccc(OCC(=O)O)cc2)NC(=O)[C@H](Cc2ccc(OCC(=O)O)cc2)NC(=O)CSC[C@@H](C(=O)NCCOCCOCC(=O)N[C@@H](CCN)C(=O)NCCCCCCCCCCC(=O)O)NC(=O)[C@H](CCCNC(=N)N)NC(=O)[C@H](C(C)C)NC(=O)[C@H](CC2CCCCC2)NC(=O)[C@H](CCN)NC1=O [Compound 2671] ({CH2CO}-Y(Carboxymethyl)Y(Carboxymethyl)DWV[Bip]E[Orn][dL][Dab][Cha]VRC[AEEA][Dab][Aun]-OH; thioether N-14) | 7.85 |
| CCCC[C@H]1NC(=O)[C@H](CCCN)NC(=O)[C@H](C(C)C)NC(=O)[C@H](Cc2ccc(-c3ccccc3)cc2)NC(=O)[C@H](C(C)C)NC(=O)[C@H](Cc2c[nH]c3ccccc23)NC(=O)[C@H](CC(=O)O)NC(=O)[C@H](Cc2ccc(OCC(=O)O)cc2)NC(=O)[C@H](CN)NC(=O)CSC[C@@H](C(=O)NCCOCCOCC(=O)N[C@@H](CCN)C(=O)NCCCCCCCCCCC(=O)O)NC(=O)[C@H](CCCCN)NC(=O)[C@H](C(C)C)NC(=O)[C@H](CC2CCCCC2)NC(=O)[C@H](CCN)NC1=O [Compound 2672] ({CH2CO}-[Dap]Y(Carboxymethyl)DWV[Bip]V[Orn][dNle][Dab][Cha]VKC[AEEA][Dab][Aun]-OH; thioether N-14) | 7.64 |
| CC(C)[C@@H]1NC(=O)[C@H](CC2CCCCC2)NC(=O)[C@H](CCN)NC(=O)[C@@H](CC2CCCCC2)NC(=O)[C@H](CCCN)NC(=O)[C@H](C(C)C)NC(=O)[C@H](Cc2ccc(-c3ccccc3)cc2)NC(=O)[C@H](C(C)C)NC(=O)[C@H](Cc2c[nH]c3ccccc23)NC(=O)[C@H](CC(=O)O)NC(=O)[C@H](Cc2ccc(OCC(=O)O)cc2)NC(=O)[C@H](CN)NC(=O)CSC[C@@H](C(=O)NCCOCCOCC(=O)N[C@@H](CCN)C(=O)NCCCCCCCCCCC(=O)O)NC(=O)[C@H](CCCCN)NC1=O [Compound 2673] ({CH2CO}-[Dap]Y(Carboxymethyl)DWV[Bip]V[Orn][dCha][Dab][Cha]VKC[AEEA][Dab][Aun]-OH; thioether N-14) | 7.65 |
| CCCC[C@H]1NC(=O)[C@H](CCCN)NC(=O)[C@H](C(C)C)NC(=O)[C@H](Cc2ccc(-c3ccccc3)cc2)NC(=O)[C@H](C(C)C)NC(=O)[C@H](Cc2cccc(C)c2)NC(=O)[C@H](CC(=O)O)NC(=O)[C@H](Cc2ccc(OCC(=O)O)cc2)NC(=O)[C@H](CN)NC(=O)CSC[C@@H](C(=O)NCCOCCOCC(=O)N[C@@H](CCN)C(=O)NCCCCCCCCCCC(=O)O)NC(=O)[C@H](CN)NC(=O)[C@H](C(C)C)NC(=O)[C@H](CC2CCCCC2)NC(=O)[C@H](CCN)NC1=O [Compound 2674] ({CH2CO}-[Dap]Y(Carboxymethyl)D[Phe(3-Me)]V[Bip]V[Orn][dNle][Dab][Cha]V[Dap]C[AEEA][Dab][Aun]-OH; thioether N-14) | 7.92 |
| Cc1cccc(C[C@@H]2NC(=O)[C@H](CC(=O)O)NC(=O)[C@H](Cc3ccc(OCC(=O)O)cc3)NC(=O)[C@H](CN)NC(=O)CSC[C@@H](C(=O)NCCOCCOCC(=O)N[C@@H](CCN)C(=O)NCCCCCCCCCCC(=O)O)NC(=O)[C@H](CN)NC(=O)[C@H](C(C)C)NC(=O)[C@H](CC3CCCCC3)NC(=O)[C@H](CCN)NC(=O)[C@@H](CC3CCCCC3)NC(=O)[C@H](CCCN)NC(=O)[C@H](C(C)C)NC(=O)[C@H](Cc3ccc(-c4ccccc4)cc3)NC(=O)[C@H](C(C)C)NC2=O)c1 [Compound 2675] ({CH2CO}-[Dap]Y(Carboxymethyl)D[Phe(3-Me)]V[Bip]V[Orn][dCha][Dab][Cha]V[Dap]C[AEEA][Dab][Aun]-OH; thioether N-14) | 7.62 |
| CCCC[C@H]1NC(=O)[C@H](CCCN)NC(=O)[C@H](C(C)C)NC(=O)[C@H](Cc2ccc(-c3ccccc3)cc2)NC(=O)[C@H](C(C)C)NC(=O)[C@H](Cc2cccc(C)c2)NC(=O)[C@H](CC(=O)O)NC(=O)[C@H](Cc2ccc(OCC(=O)O)cc2)NC(=O)[C@H](CN)NC(=O)CSC[C@@H](C(=O)NCCOCCOCC(=O)N[C@@H](CCN)C(=O)NCCCCCCCCCCC(=O)O)NC(=O)[C@H](CCCN)NC(=O)[C@H](C(C)C)NC(=O)[C@H](CC2CCCCC2)NC(=O)[C@H](CCN)NC1=O [Compound 2676] ({CH2CO}-[Dap]Y(Carboxymethyl)D[Phe(3-Me)]V[Bip]V[Orn][dNle][Dab][Cha]V[Orn]C[AEEA][Dab][Aun]-OH; thioether N-14) | 7.99 |
| Cc1cccc(C[C@@H]2NC(=O)[C@H](CC(=O)O)NC(=O)[C@H](Cc3ccc(OCC(=O)O)cc3)NC(=O)[C@H](CN)NC(=O)CSC[C@@H](C(=O)NCCOCCOCC(=O)N[C@@H](CCN)C(=O)NCCCCCCCCCCC(=O)O)NC(=O)[C@H](CCCN)NC(=O)[C@H](C(C)C)NC(=O)[C@H](CC3CCCCC3)NC(=O)[C@H](CCN)NC(=O)[C@@H](CC3CCCCC3)NC(=O)[C@H](CCCN)NC(=O)[C@H](C(C)C)NC(=O)[C@H](Cc3ccc(-c4ccccc4)cc3)NC(=O)[C@H](C(C)C)NC2=O)c1 [Compound 2677] ({CH2CO}-[Dap]Y(Carboxymethyl)D[Phe(3-Me)]V[Bip]V[Orn][dCha][Dab][Cha]V[Orn]C[AEEA][Dab][Aun]-OH; thioether N-14) | 7.74 |
| CCCC[C@H]1NC(=O)[C@H](CCCN)NC(=O)[C@H](C(C)C)NC(=O)[C@H](Cc2ccc(-c3ccccc3)cc2)NC(=O)[C@H](C(C)C)NC(=O)[C@H](Cc2cc3ccccc3[nH]2)NC(=O)[C@H](CC(=O)O)NC(=O)[C@H](Cc2ccc(OCC(=O)O)cc2)NC(=O)[C@H](CN)NC(=O)CSC[C@@H](C(=O)N[C@@H](CCN)C(=O)NCCOCCOCC(=O)NCCCCCCCCCCC(=O)O)NC(=O)[C@H](CCCCN)NC(=O)[C@H](C(C)C)NC(=O)[C@H](CC2CCCCC2)NC(=O)[C@H](CCN)NC1=O [Compound 2678] ({CH2CO}-[Dap]Y(Carboxymethyl)D[Ala(indol-2-yl)]V[Bip]V[Orn][dNle][Dab][Cha]VKC[Dab][AEEA][Aun]-OH; thioether N-14) | 7.82 |
| CC(C)[C@@H]1NC(=O)[C@H](CC2CCCCC2)NC(=O)[C@H](CCN)NC(=O)[C@@H](CC2CCCCC2)NC(=O)[C@H](CCCN)NC(=O)[C@H](C(C)C)NC(=O)[C@H](Cc2ccc(-c3ccccc3)cc2)NC(=O)[C@H](C(C)C)NC(=O)[C@H](Cc2c[nH]c3ccccc23)NC(=O)[C@H](CC(=O)O)NC(=O)[C@H](Cc2ccc(OCC(=O)O)cc2)NC(=O)[C@H](CN)NC(=O)CSC[C@@H](C(=O)N[C@@H](CCN)C(=O)NCCOCCOCC(=O)NCCCCCCCCCCC(=O)O)NC(=O)[C@H](CCCCN)NC1=O [Compound 2679] ({CH2CO}-[Dap]Y(Carboxymethyl)DWV[Bip]V[Orn][dCha][Dab][Cha]VKC[Dab][AEEA][Aun]-OH; thioether N-14) | 7.57 |
| CCCC[C@H]1NC(=O)[C@H](CCCN)NC(=O)[C@H](C(C)C)NC(=O)[C@H](Cc2ccc(-c3ccccc3)cc2)NC(=O)[C@H](C(C)C)NC(=O)[C@H](Cc2cccc(C)c2)NC(=O)[C@H](CC(=O)O)NC(=O)[C@H](Cc2ccc(OCC(=O)O)cc2)NC(=O)[C@H](CN)NC(=O)CSC[C@@H](C(=O)N[C@@H](CCN)C(=O)NCCOCCOCC(=O)NCCCCCCCCCCC(=O)O)NC(=O)[C@H](CN)NC(=O)[C@H](C(C)C)NC(=O)[C@H](CC2CCCCC2)NC(=O)[C@H](CCN)NC1=O [Compound 2680] ({CH2CO}-[Dap]Y(Carboxymethyl)D[Phe(3-Me)]V[Bip]V[Orn][dNle][Dab][Cha]V[Dap]C[Dab][AEEA][Aun]-OH; thioether N-14) | 7.88 |
| Cc1cccc(C[C@@H]2NC(=O)[C@H](CC(=O)O)NC(=O)[C@H](Cc3ccc(OCC(=O)O)cc3)NC(=O)[C@H](CN)NC(=O)CSC[C@@H](C(=O)N[C@@H](CCN)C(=O)NCCOCCOCC(=O)NCCCCCCCCCCC(=O)O)NC(=O)[C@H](CN)NC(=O)[C@H](C(C)C)NC(=O)[C@H](CC3CCCCC3)NC(=O)[C@H](CCN)NC(=O)[C@@H](CC3CCCCC3)NC(=O)[C@H](CCCN)NC(=O)[C@H](C(C)C)NC(=O)[C@H](Cc3ccc(-c4ccccc4)cc3)NC(=O)[C@H](C(C)C)NC2=O)c1 [Compound 2681] ({CH2CO}-[Dap]Y(Carboxymethyl)D[Phe(3-Me)]V[Bip]V[Orn][dCha][Dab][Cha]V[Dap]C[Dab][AEEA][Aun]-OH; thioether N-14) | 7.89 |
| CCCC[C@H]1NC(=O)[C@H](CCCN)NC(=O)[C@H](C(C)C)NC(=O)[C@H](Cc2ccc(-c3ccccc3)cc2)NC(=O)[C@H](C(C)C)NC(=O)[C@H](Cc2cccc(C)c2)NC(=O)[C@H](CC(=O)O)NC(=O)[C@H](Cc2ccc(OCC(=O)O)cc2)NC(=O)[C@H](CN)NC(=O)CSC[C@@H](C(=O)N[C@@H](CCN)C(=O)NCCOCCOCC(=O)NCCCCCCCCCCC(=O)O)NC(=O)[C@H](CCCNC(=N)N)NC(=O)[C@H](C(C)C)NC(=O)[C@H](CC2CCCCC2)NC(=O)[C@H](CCN)NC1=O [Compound 2682] ({CH2CO}-[Dap]Y(Carboxymethyl)D[Phe(3-Me)]V[Bip]V[Orn][dNle][Dab][Cha]VRC[Dab][AEEA][Aun]-OH; thioether N-14) | 7.76 |
